Measurements as given in ChEMBL document CHEMBL3102831 (Bioorg Med Chem Lett, 2014).

Legend:
HeLa = test: Cytotoxicity against human HeLa cells after 48 hrs by MTT assay; type: functional, cell-based
HCT-116 = test: Cytotoxicity against human HCT116 cells after 48 hrs by MTT assay; type: functional, cell-based; conditions: HCT-116, 48 h
HepG2 = test: Cytotoxicity against human HepG2 cells after 48 hrs by MTT assay; type: functional, cell-based; conditions: HepG2, 48 h
[1] = Cytotoxicity against human SPCA2 cells after 48 hrs by MTT assay; type: functional, cell-based; conditions: SPCA2, 48 h
HUVEC = test: Cytotoxicity against human HUVEC after 48 hrs by MTT assay; type: cell-based
CNE = test: Cytotoxicity against human CNE cells after 48 hrs by MTT assay; type: functional, cell-based

## CCOP(=O)(OCC)C(NC(=O)c1cc(O)c2c(c1)C(=O)c1cccc(O)c1C2=O)c1ccccc1Br (centres undefined)
HeLa
  IC50: 79.6 µM
HCT-116
  IC50: 48.9 µM
HepG2
  IC50: 88.3 µM
[1]
  IC50: 85.5 µM
HUVEC
  IC50: > 100 µM
CNE
  IC50: 55.7 µM

## CCOP(=O)(OCC)C(NC(=O)c1cc(O)c2c(c1)C(=O)c1cccc(O)c1C2=O)c1cccc(F)c1 (centres undefined)
HeLa
  IC50: 64.8 µM
HCT-116
  IC50: 16.7 µM
HepG2
  IC50: 56.8 µM
[1]
  IC50: 55.4 µM
HUVEC
  IC50: > 100 µM
CNE
  IC50: 49.2 µM

## CCOP(=O)(OCC)C(NC(=O)c1cc(O)c2c(c1)C(=O)c1cccc(O)c1C2=O)c1ccc(Cl)cc1 (centres undefined)
HeLa
  IC50: 87.5 µM
HCT-116
  IC50: 61.2 µM
HepG2
  IC50: 87.3 µM
[1]
  IC50: 89.5 µM
HUVEC
  IC50: > 100 µM
CNE
  IC50: 55.8 µM

## CCOP(=O)(OCC)C(NC(=O)c1cc(O)c2c(c1)C(=O)c1cccc(O)c1C2=O)c1ccccc1Cl (centres undefined)
HeLa
  IC50: 35.2 µM
HCT-116
  IC50: 48.2 µM
HepG2
  IC50: 39.2 µM
[1]
  IC50: 28.3 µM
HUVEC
  IC50: > 100 µM
CNE
  IC50: 68 µM

## CCOP(=O)(OCC)C(NC(=O)c1cc(O)c2c(c1)C(=O)c1cccc(O)c1C2=O)c1cccc(Cl)c1 (centres undefined)
HeLa
  IC50: 73.2 µM
HCT-116
  IC50: 22.4 µM
HepG2
  IC50: 72 µM
[1]
  IC50: 77 µM
HUVEC
  IC50: > 100 µM
CNE
  IC50: 45.6 µM

## CCOP(=O)(OCC)C(NC(=O)c1cc(O)c2c(c1)C(=O)c1cccc(O)c1C2=O)c1ccc(OC)cc1 (centres undefined)
HeLa
  IC50: 40.1 µM
HCT-116
  IC50: 22.1 µM
HepG2
  IC50: 44.4 µM
[1]
  IC50: 38.9 µM
HUVEC
  IC50: > 100 µM
CNE
  IC50: 42.9 µM

## CCOP(=O)(OCC)C(NC(=O)c1cc(O)c2c(c1)C(=O)c1cccc(O)c1C2=O)c1ccccc1OC (centres undefined)
HeLa
  IC50: 25.6 µM
HCT-116
  IC50: 8.37 µM
HepG2
  IC50: 30 µM
[1]
  IC50: 15 µM
HUVEC
  IC50: > 100 µM
CNE
  IC50: 28.6 µM

## CCOP(=O)(OCC)C(NC(=O)c1cc(O)c2c(c1)C(=O)c1cccc(O)c1C2=O)c1ccccc1F (centres undefined)
HeLa
  IC50: 94.2 µM
HCT-116
  IC50: 36.6 µM
HepG2
  IC50: 71.2 µM
[1]
  IC50: 79.9 µM
HUVEC
  IC50: > 100 µM
CNE
  IC50: 67.6 µM

## CCOP(=O)(OCC)C(NC(=O)c1cc(O)c2c(c1)C(=O)c1cccc(O)c1C2=O)c1ccc(Br)cc1 (centres undefined)
HeLa
  IC50: 98.2 µM
HCT-116
  IC50: 65.5 µM
HepG2
  IC50: 94.2 µM
[1]
  IC50: 88.2 µM
HUVEC
  IC50: > 100 µM
CNE
  IC50: 42.5 µM
